The source of these data is ChEMBL document CHEMBL5260847, “Current scenario of indole derivatives with potential anti-drug-resistant cancer activity” (Eur J Med Chem, 2020).

Bounds are passed on as bounds.

One assay deals with HeLa. Briefly: Anticancer activity against human HeLa cells assessed as inhibition of cell growth. It counts as functional, cell-based.
In another assay the test system is HCT-116. The assay is described as follows: Antiproliferative activity against human HCT-116. It counts as functional, cell-based.
In assay [1] the test system is PC-3. The assay is described as follows: Antitumor activity in human PC-3 cells xenografted immunodeficient ICR mouse assessed as reduction in tumor growth at 25 mg/kg, ip administered for 2 weeks. It counts as functional. More on the design: scale not given: the % may be the effect or the level left.
For assay [2], the system named is PC-3. Briefly: Antitumor activity in human PC-3 cells xenografted immunodeficient ICR mouse assessed as reduction in tumor growth at 0.5 mg/kg, ip administered for 2 weeks in presence of vinblastine. It counts as functional. The arrangement: scale not given: the % may be the effect or the level left.
Assay [3] relates to HT-29. Briefly: Antiproliferative activity against human HT-29 cells assessed as reduction in cell viability incubated for 72 hrs by MTT assay. Particulars: HT-29, 72 h. It counts as functional, cell-based.
For assay [4], the system named is A549. Briefly: Antiproliferative activity against human A549 cells assessed as reduction in cell viability after 48 hrs by CellTiter-Blue assay. Format: functional, cell-based. Particulars: A549, 48 h.
The subject of assay [5] is LS180. Briefly: Antitumor activity against human LS180 cells xenografted in ICR mouse assessed as tumor growth inhibition at 4.5 mg/kg. It counts as functional. More on the design: scale not given: the % may be the effect or the level left.
In assay [6] the test system is LS180. The assay is described as follows: Antitumor activity against human LS180 cells xenografted in ICR mouse assessed as tumor growth inhibition at 45 mg/kg. It counts as functional. The arrangement: scale not given: the % may be the effect or the level left.
The test system of assay [7] is HT-29. The assay is described as follows: Antiproliferative activity against human HT-29 cells assessed as reduction in cell viability celltiter-Glo assay. Format: functional, cell-based.
The test system of assay [8] is ZR-75-1. The assay is described as follows: Antiproliferative activity against multi-drug resistant human ZR-75-1 cells assessed as reduction in cell viability. Format: functional, cell-based.
The test system of assay [9] is ZR-75-1. The assay is described as follows: Antiproliferative activity against human ZR-75-1 cells assessed as reduction in cell viability celltiter-Glo assay. Format: functional, cell-based.
Assay [10] concerns H69AR. The assay is described as follows: Antiproliferative activity against multidrug resistant human NCI-H69AR assessed as inhibition of cell proliferation by MTT assay. Format: functional, cell-based.
Assay [11] relates to H69AR. The assay is described as follows: Antiproliferative activity against multi-drug resistant human NCI-H69AR assessed as reduction in cell viability. It counts as functional, cell-based.
In another assay the test system is MCF7. Briefly: Antiproliferative activity against Doxorubicin resistant human MCF7 cells assessed as reduction in cell viability. Format: functional, cell-based.
The subject of assay [12] is A549. Briefly: Antiproliferative activity against human Non-small-cell lung cancer A549 cells assessed as reduction in cell viability incubated for 72 hrs by MTT assay. Format: functional, cell-based. Particulars: A549, 72 h.

Consider `O=C1/C(=N\O)c2ccccc2N1CCOCCN1C(=O)/C(=N/O)c2ccccc21`, for which the 50% inhibitory concentration (IC50) in the assay on HeLa and in the assay with HCT-116 was 6.23 µM throughout.
With `CC1(C)C([C@@H](Cc2c[nH]c3ccccc23)C(=O)OCc2ccccc2)C(=O)[C@@H]2Cc3c([nH]c4ccccc34)CN21` (stereo partly specified), the Activity turned out to be 40% in the assay on PC-3 [1] and 50% in the assay on PC-3 [2].
Consider `COc1ccc2c(c1)/C(=N/NC(=O)c1cc3cc(OC)ccc3[nH]1)C(=O)N2Cc1ccccc1`, for which the IC50 was determined as 2.94 µM in the assay on HT-29 [3] and 0.54 µM in the assay on A549 [4].
For `CCO[C@]1(C)C[C@@H]2CN(CCc3c([nH]c4ccccc34)[C@@](C(=O)OC)(c3cc4c(cc3OC)N(C)C3[C@]45CCN4CC=C[C@@](CC)([C@@H](OC(C)=O)[C@]3(O)C(=O)OC)[C@H]45)C2)C1` (stereo partly specified), the results for the Activity with LS180 [5] and in the assay with LS180 [6] were 40.7% and 67.8%, respectively.
As to `CCN(CC)CCNC(=O)c1c(C)[nH]c(/C=C2\C(=O)Nc3ccc(F)cc32)c1C` [SUNITINIB], the IC50 is 10.1 µM with HT-29 [7]; 18.9 µM in the assay with ZR-75-1 [8]; 10.1 µM with A549 [4]; 5.87 µM in the assay on ZR-75-1 [9]; 5.8 µM in the assay with H69AR [10]; 5.8 µM in the assay with H69AR [11]. In addition, the concentration for half-maximal inhibition (IC50) in the assay on MCF7 was > 100 µM; with A549 [12], 3.06 µM.
